Laboratory results published in patent US8815517B2, “Methods for identifying functionally related genes and drug targets” (Ribonomics, Inc., priority 1999, dated 2014).

Experiments:
Type in all cases: cell-based, murine
G11 cells [1] = experiment: Induction of differentiation of HuB (Hel-N2) stably transfected P19 (G11) cells; details: 5% DMSO, harvested after about eight days
Experimental: The cells were then plated into two 100 mm gelatin-coated tissue culture plates. Cells were harvested after an additional four days. […] Neuronal differentiation was induced by treating 5×10^5 G11 or P19 cells placed on a 60 mm petri dish with 0.5 μM RA (Sigma-Aldrich, St. Louis, Mo., Catalog # R2625). Muscle differentiation was induced by treating 5×10^5p19 cells placed on a 60 mm petri dish with 5% DMSO (Sigma-Aldrich, St. Louis, Mo., Catalog # D2650). After two days, 25% of the cells that had formed into clumps were removed, placed in new petri dishes, and supplemented with fresh medium and RA or DMSO. Following an additional two days, cell aggregates were washed once with phosphate-buffered saline (PBS) and trypsinized. The cells were then plated into two 100 mm gelatin-coated tissue culture plates. Cells were harvested after an additional four days. […] Cell extracts and immunoprecipitations were performed as described in Example 1. Monoclonal anti-gene 10 (g10) antibodies were obtained from Duke University (Durham, N.C.) as previously described in Examples 1 and 2.

G11 cells [2] = experiment: Quantitative PCR of CACN, CELSR and MBNL RNA expression in G11 cells over the time course of differentiation; details: time course of one to nine days
Experimental: The expression of these three genes was analyzed by Quantitative RT-PCR during a time course of one to nine days of treatment with either dimethyl-sulfoxide or retinoic acid. To verify a role in neuronal differentiation, a comprehensive transcriptional analysis by Quantitative PCR was undertaken looking at the patterns of RNA expression for the […], and MBNL genes in the G11 cells (constitutively expressing HuB) and in the parental P19 cells (FIGS. 12A, 12B, and 12C).

G11 cells [3] = experiment: Microarray of total cellular RNA of G11 cells, differentiated/undifferentiated; details: change in amount of RNA, day 1 and day 9
Experimental: Neuronal differentiation was induced by treating 5×10^5 G11 or P19 cells placed on a 60 mm petri dish with 0.5 μM RA (Sigma-Aldrich, St. Louis, Mo., Catalog # R2625). Muscle differentiation was induced by treating 5×10^5p19 cells placed on a 60 mm petri dish with 5% DMSO (Sigma-Aldrich, St. Louis, Mo., Catalog # D2650). After two days, 25% of the cells that had formed into clumps were removed, placed in new petri dishes, and supplemented with fresh medium and RA or DMSO. Following an additional two days, cell aggregates were washed once with phosphate-buffered saline (PBS) and trypsinized. The cells were then plated into two 100 mm gelatin-coated tissue culture plates. Cells were harvested after an additional four days. […] Cell extracts and immunoprecipitations were performed as described in Example 1. Monoclonal anti-gene 10 (g10) antibodies were obtained from Duke University (Durham, N.C.) as previously described in Examples 1 and 2. Following immunoprecipitation, the associated mRNAs were identified on high density mouse 12K glass slide microarrays (Mouse cDNA microarray kit, Catalog # […], Agilent Technologies, Palo Alto, Calif.). RNA labeling and microarray analysis was performed according to the manufacturer's protocols (Agilent Technologies, Palo Alto, Calif.).

Row | Structure (SMILES) | muscle differentiation (morphology and markers) (G11 cells [1]) | expression patterns of the CACN, CELSR and MBNL genes (G11 cells [2]) | ΔTotal Cellular RNA, CACN (G11 cells [3]) | ΔTotal Cellular RNA, CELSR (G11 cells [3]) [X] | ΔTotal Cellular RNA, MBNL (G11 cells [3])
1 | C[S+](C)[O-] [DMSO, dimethyl-sulfoxide] | displayed characteristic muscle cell markers and morphology | failed to induce changes | – | – | –
2 | CC1=C(/C=C/C(C)=C/C=C/C(C)=C/C(=O)O)C(C)(C)CCC1 [RA, retinoic acid] | – | – | +1.31X | −1.33 | +1.42X
